# How the values were obtained:
# PC-3 = assay: Antiproliferative MTT assay, PC-3; type: cell-based; settings: Homo sapiens, PC-3, read-out: Antiproliferative activity IC50 ± SEM, PC-3
# MCF-7 = assay: Antiproliferative MTT assay, MCF-7; type: cell-based, human; settings: for IC50: Homo sapiens, MCF7, read-out: Antiproliferative activity IC50 ± SEM, MCF-7
# HCT-116 = assay: Antiproliferative MTT assay, HCT-116; type: cell-based; settings: Homo sapiens, HCT-116, read-out: Antiproliferative activity IC50 ± SEM, HCT-116
# [1] = system: four human cancer cell lines (HCT-116, PC-3, MCF-7, MDAMB-231); assay: Antiproliferative MTT assay, average over four cancer cell lines; type: cell-based; settings: for GI50: average IC50 of the four cancer cell lines; for fold less potent than compound 4n (GI50): ratio of GI50 values
# MDAMB-231 = assay: Antiproliferative MTT assay, MDAMB-231; type: cell-based, human
# HER2-TK = HER2-TK (Homo sapiens, UniProt P04626); assay: HER2 inhibitory assay; type: biochemical; settings: HER2 IC50 ± SEM, Table 3
# Chain of HER2-TK (P04626 676-1255 limits assumed): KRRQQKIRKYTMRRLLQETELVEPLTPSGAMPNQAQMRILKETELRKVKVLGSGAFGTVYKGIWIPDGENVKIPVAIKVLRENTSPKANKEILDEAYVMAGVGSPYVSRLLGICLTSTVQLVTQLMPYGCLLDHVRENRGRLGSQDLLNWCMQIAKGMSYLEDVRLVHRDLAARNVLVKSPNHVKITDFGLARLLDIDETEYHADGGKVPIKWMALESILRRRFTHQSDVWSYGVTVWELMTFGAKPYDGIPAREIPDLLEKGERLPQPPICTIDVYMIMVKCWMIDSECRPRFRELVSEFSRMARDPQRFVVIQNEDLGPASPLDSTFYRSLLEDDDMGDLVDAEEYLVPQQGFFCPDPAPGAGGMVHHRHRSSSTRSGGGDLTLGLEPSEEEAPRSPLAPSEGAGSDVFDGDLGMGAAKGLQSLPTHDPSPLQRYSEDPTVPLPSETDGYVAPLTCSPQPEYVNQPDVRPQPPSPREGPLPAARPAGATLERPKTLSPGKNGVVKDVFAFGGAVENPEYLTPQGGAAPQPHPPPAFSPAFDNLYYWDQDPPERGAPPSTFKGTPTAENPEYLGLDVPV
# EGFR-TK = EGFR-TK (Homo sapiens, UniProt P00533); assay: EGFR inhibitory assay; type: biochemical
# Chain of EGFR-TK (P00533 669-1210): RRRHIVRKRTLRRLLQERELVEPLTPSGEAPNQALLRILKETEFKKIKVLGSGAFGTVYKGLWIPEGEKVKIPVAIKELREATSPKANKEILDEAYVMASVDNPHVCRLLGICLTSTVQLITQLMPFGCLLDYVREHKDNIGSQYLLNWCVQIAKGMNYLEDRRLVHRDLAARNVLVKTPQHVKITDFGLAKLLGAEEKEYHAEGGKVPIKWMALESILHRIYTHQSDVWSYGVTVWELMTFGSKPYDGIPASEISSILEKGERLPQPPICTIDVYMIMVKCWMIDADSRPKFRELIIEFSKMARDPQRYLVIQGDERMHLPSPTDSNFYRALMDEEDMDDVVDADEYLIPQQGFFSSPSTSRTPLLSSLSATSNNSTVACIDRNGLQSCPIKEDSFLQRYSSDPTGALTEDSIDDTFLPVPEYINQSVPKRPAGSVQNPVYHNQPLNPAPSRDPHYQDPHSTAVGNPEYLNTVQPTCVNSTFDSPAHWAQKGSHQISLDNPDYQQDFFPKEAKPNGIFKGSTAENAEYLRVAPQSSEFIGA
smiles,measurement,setting,value
"COc1ccc(N2CCN(CC(=O)Nc3ccc(C(=O)C=Cc4ccccc4)cc3)CC2)cc1 [4a, N-(4-Cinnamoylphenyl)-2-(4-(4-methoxyphenyl)piperazin-1-yl)acetamide]",IC50,PC-3,78.2 ± 4 µM
same,IC50,MCF-7,72.4 ± 3.7 µM
same,IC50,HCT-116,68.6 ± 3.7 µM
"COc1ccc(N2CCN(CC(=O)Nc3ccc(C(=O)C=Cc4ccc(C)cc4)cc3)CC2)cc1 [4b, 2-(4-(4-Methoxyphenyl)piperazin-1-yl)-N-(4-(3-(p-tolyl)acryloyl)phenyl)acetamide]",IC50,PC-3,32 ± 2.1 µM
same,IC50,MCF-7,65.5 ± 3.5 µM
same,IC50,HCT-116,79.6 ± 3.8 µM
"COc1ccc(C=CC(=O)c2ccc(NC(=O)CN3CCN(c4ccc(OC)cc4)CC3)cc2)cc1 [4c, N-(4-(3-(4-Methoxyphenyl)acryloyl)phenyl)-2-(4-(4-methoxyphenyl)piperazin-1-yl)acetamide]",IC50,PC-3,34.5 ± 2.1 µM
same,IC50,MCF-7,28.3 ± 1.8 µM
same,IC50,HCT-116,18.1 ± 1.4 µM
"COc1ccc(N2CCN(CC(=O)Nc3ccc(C(=O)C=Cc4cc(OC)c(OC)c(OC)c4)cc3)CC2)cc1 [4d, 2-(4-(4-Methoxyphenyl)piperazin-1-yl)-N-(4-(3-(3,4,5-trimethoxyphenyl)acryloyl)phenyl)acetamide]",IC50,PC-3,61.4 ± 3.5 µM
same,IC50,MCF-7,24.2 ± 1.7 µM
same,IC50,HCT-116,29.1 ± 1.9 µM
"COc1ccc(N2CCN(CC(=O)Nc3ccc(C(=O)C=Cc4ccc(Br)cc4)cc3)CC2)cc1 [4e, N-(4-(3-(4-Bromophenyl)acryloyl)phenyl)-2-(4-(4-methoxyphenyl)piperazin-1-yl)acetamide]",IC50,PC-3,73.9 ± 3.8 µM
same,IC50,MCF-7,52.5 ± 2.9 µM
same,IC50,HCT-116,64.8 ± 3.5 µM
"COc1ccc(N2CCN(CC(=O)Nc3ccc(C(=O)C=Cc4ccc(Cl)cc4Cl)cc3)CC2)cc1 [4f, N-(4-(3-(2,4-Dichlorophenyl)acryloyl)phenyl)-2-(4-(4-methoxyphenyl)piperazin-1-yl)acetamide]",IC50,PC-3,> 100 µM
same,IC50,MCF-7,> 100 µM
same,IC50,HCT-116,> 100 µM
"COc1ccc(N2CCN(CC(=O)Nc3ccc(C(=O)C=Cc4ccco4)cc3)CC2)cc1 [4g, N-(4-(3-(Furan-2-yl)acryloyl)phenyl)-2-(4-(4-methoxyphenyl)piperazin-1-yl)acetamide]",GI50,[1]; Homo sapiens,12 µM
same,fold less potent than compound 4n (GI50),[1],1.7
same,IC50,PC-3,14.2 ± 1.2 µM
same,"fold less potent than 4n, MCF-7",MCF-7,2 fold
same,IC50,MCF-7,9.37 ± 0.7 µM
same,IC50,HCT-116,17.3 ± 1.4 µM
same,"fold less potent than 4n, MDAMB-231",MDAMB-231,2 fold
"O=C(CN1CCN(c2ccc(Cl)cc2)CC1)Nc1ccc(C(=O)C=Cc2ccccc2)cc1 [4h, 2-(4-(4-Chlorophenyl)piperazin-1-yl)-N-(4-cinnamoylphenyl)acetamide]",IC50,PC-3,20.4 ± 1.5 µM
same,IC50,MCF-7,41.3 ± 2.4 µM
same,IC50,HCT-116,49.6 ± 2.8 µM
"Cc1ccc(C=CC(=O)c2ccc(NC(=O)CN3CCN(c4ccc(Cl)cc4)CC3)cc2)cc1 [4i, 2-(4-(4-Chlorophenyl)piperazin-1-yl)-N-(4-(3-(p-tolyl)acryloyl)phenyl)acetamide]",GI50,[1]; Homo sapiens,90 µM
same,fold less potent than compound 4n (GI50),[1],13
same,IC50,PC-3,> 100 µM
same,IC50,MCF-7,91.6 ± 4.6 µM
same,IC50,HCT-116,86.1 ± 4.3 µM
"COc1ccc(C=CC(=O)c2ccc(NC(=O)CN3CCN(c4ccc(Cl)cc4)CC3)cc2)cc1 [4j, 2-(4-(4-Chlorophenyl)piperazin-1-yl)-N-(4-(3-(4-methoxyphenyl)acryloyl)phenyl)acetamide]",IC50,PC-3,66.8 ± 3.5 µM
same,IC50,MCF-7,42.9 ± 2.5 µM
same,IC50,HCT-116,27.4 ± 1.9 µM
"COc1cc(C=CC(=O)c2ccc(NC(=O)CN3CCN(c4ccc(Cl)cc4)CC3)cc2)cc(OC)c1OC [4k, 2-(4-(4-Chlorophenyl)piperazin-1-yl)-N-(4-(3-(3,4,5-trimethoxyphenyl)acryloyl)phenyl)acetamide]",IC50,PC-3,42.9 ± 2.5 µM
same,IC50,MCF-7,17.9 ± 1.4 µM
same,IC50,HCT-116,34.8 ± 2.2 µM
"O=C(CN1CCN(c2ccc(Cl)cc2)CC1)Nc1ccc(C(=O)C=Cc2ccc(Br)cc2)cc1 [4l, N-(4-(3-(4-Bromophenyl)acryloyl)phenyl)-2-(4-(4-chlorophenyl)piperazin-1-yl)acetamide]",GI50,[1]; Homo sapiens,76 µM
same,fold less potent than compound 4n (GI50),[1],11
same,IC50,PC-3,86.4 ± 4.3 µM
same,IC50,MCF-7,80.8 ± 3.9 µM
same,IC50,HCT-116,75.4 ± 4.1 µM
"O=C(CN1CCN(c2ccc(Cl)cc2)CC1)Nc1ccc(C(=O)C=Cc2ccc(Cl)cc2Cl)cc1 [4m, 2-(4-(4-Chlorophenyl)piperazin-1-yl)-N-(4-(3-(2,4dichlorophenyl)acryloyl)phenyl)acetamide]",IC50,PC-3,55.2 ± 3.2 µM
same,IC50,MCF-7,35.8 ± 2.2 µM
same,IC50,HCT-116,44.8 ± 2.6 µM
"COc1ccc(N2CCN(CC(=O)Nc3ccc(C4=NN(C(C)=O)C(c5ccccc5)C4)cc3)CC2)cc1 (stereo not shown) [5a, N-(4-(1-Acetyl-5-phenyl-4,5-dihydro-1H-pyrazol-3-yl)phenyl)-2-(4-(4-methoxyphenyl)piperazin-1-yl)acetamide]",IC50,PC-3,46.3 ± 2.5 µM
same,IC50,MCF-7,19.6 ± 1.4 µM
same,IC50,HCT-116,32.1 ± 2.1 µM
"COc1ccc(N2CCN(CC(=O)Nc3ccc(C4=NN(C(C)=O)C(c5ccc(C)cc5)C4)cc3)CC2)cc1 (stereo not shown) [5b, N-(4-(1-Acetyl-5-(p-tolyl)-4,5-dihydro-1H-pyrazol-3-yl)phenyl)-2-(4-(4-methoxy-phenyl)piperazin-1-yl)acetamide]",GI50,[1]; Homo sapiens,18 µM
same,IC50,PC-3,21.9 ± 1.6 µM
same,IC50,MCF-7,13.8 ± 1.1 µM
same,IC50,HCT-116,24.9 ± 1.8 µM
"COc1ccc(C2CC(c3ccc(NC(=O)CN4CCN(c5ccc(OC)cc5)CC4)cc3)=NN2C(C)=O)cc1 (stereo not shown) [5c, N-(4-(1-Acetyl-5-(4-methoxyphenyl)-4,5-dihydro-1H-pyrazol-3-yl)phenyl)-2-(4-(4-methoxyphenyl)piperazin-1-yl)acetamide]",GI50,[1]; Homo sapiens,13 µM
same,IC50,PC-3,16.2 ± 1.3 µM
same,IC50,MCF-7,9.68 ± 0.8 µM
same,IC50,HCT-116,18.6 ± 1.5 µM
"COc1ccc(N2CCN(CC(=O)Nc3ccc(C4=NN(C(C)=O)C(c5ccc(Br)cc5)C4)cc3)CC2)cc1 (stereo not shown) [5e, N-(4-(1-Acetyl-5-(4-bromophenyl)-4,5-dihydro-1H-pyrazol-3-yl)phenyl)-2-(4-(4-methoxyphenyl)piperazin-1-yl)acetamide]",IC50,PC-3,29.6 ± 1.9 µM
same,IC50,MCF-7,15.2 ± 1.3 µM
same,IC50,HCT-116,26.8 ± 2 µM
"COc1ccc(N2CCN(CC(=O)Nc3ccc(C4=NN(C(C)=O)C(c5ccc(Cl)cc5Cl)C4)cc3)CC2)cc1 (stereo not shown) [5f, N-(4-(1-Acetyl-5-(2,4-dichlorophenyl)-4,5-dihydro-1H-pyrazol-3-yl)phenyl)-2-(4-(4-methoxyphenyl)piperazin-1-yl)acetamide]",IC50,PC-3,57.8 ± 3.3 µM
same,IC50,MCF-7,47.5 ± 2.6 µM
same,IC50,HCT-116,54 ± 3.2 µM
"COc1ccc(N2CCN(CC(=O)Nc3ccc(C4=NN(C(C)=O)C(c5ccco5)C4)cc3)CC2)cc1 (stereo not shown) [5g, N-(4-(1-Acetyl-5-(furan-2-yl)-4,5-dihydro-1H-pyrazol-3-yl)phenyl)-2-(4-(4-methoxy-phenyl)piperazin-1-yl)acetamide]",GI50,[1]; Homo sapiens,6 µM
same,IC50,HER2-TK,1.54 µM
same,IC50,PC-3,7.48 ± 0.6 µM
same,IC50,MCF-7,3.78 ± 0.2 µM
same,IC50,HCT-116,8.06 ± 0.7 µM
same,times less effective as EGFR inhibitors than erlotinib,EGFR-TK,at least 10 times
same,IC50,EGFR-TK; EGFR IC50 ± SEM,2.38 µM
"CC(=O)N1N=C(c2ccc(NC(=O)CN3CCN(c4ccc(Cl)cc4)CC3)cc2)CC1c1ccccc1 (stereo not shown) [5h, N-(4-(1-Acetyl-5-phenyl-4,5-dihydro-1H-pyrazol-3-yl)phenyl)-2-(4-(4-chloro-phenyl)piperazin-1-yl)acetamide]",IC50,PC-3,87.6 ± 4.3 µM
same,IC50,MCF-7,85.4 ± 4.6 µM
same,IC50,HCT-116,74.9 ± 4.1 µM
"CC(=O)N1N=C(c2ccc(NC(=O)CN3CCN(c4ccc(Cl)cc4)CC3)cc2)CC1c1ccc(C)cc1 (stereo not shown) [5i, N-(4-(1-Acetyl-5-(p-tolyl)-4,5-dihydro-1H-pyrazol-3-yl)phenyl)-2-(4-(4-chloro-phenyl)piperazin-1-yl)acetamide]",IC50,PC-3,67.8 ± 3.6 µM
same,IC50,MCF-7,54.7 ± 3.1 µM
same,IC50,HCT-116,62.5 ± 3.4 µM
"COc1ccc(C2CC(c3ccc(NC(=O)CN4CCN(c5ccc(Cl)cc5)CC4)cc3)=NN2C(C)=O)cc1 (stereo not shown) [5j, N-(4-(1-Acetyl-5-(4-methoxyphenyl)-4,5-dihydro-1H-pyrazol-3-yl)phenyl)-2-(4-(4-chlorophenyl)piperazin-1-yl)acetamide]",GI50,[1]; Homo sapiens,100 µM
same,IC50,PC-3,> 100 µM
same,IC50,MCF-7,94 ± 4.9 µM
same,IC50,HCT-116,> 100 µM
"COc1cc(C2CC(c3ccc(NC(=O)CN4CCN(c5ccc(Cl)cc5)CC4)cc3)=NN2C(C)=O)cc(OC)c1OC (stereo not shown) [5k, N-(4-(1-Acetyl-5-(3,4,5-trimethoxyphenyl)-4,5-dihydro-1H-pyrazol-3-yl)phenyl)-2-(4-(4-chlorophenyl)piperazin-1-yl)acetamide]",IC50,PC-3,45.7 ± 2.6 µM
same,IC50,MCF-7,40.8 ± 2.4 µM
same,IC50,HCT-116,52.8 ± 3 µM
"CC(=O)N1N=C(c2ccc(NC(=O)CN3CCN(c4ccc(Cl)cc4)CC3)cc2)CC1c1ccc(Cl)cc1Cl (stereo not shown) [5m, N-(4-(1-Acetyl-5-(2,4-dichlorophenyl)-4,5-dihydro-1H-pyrazol-3-yl)phenyl)-2-(4-(4-chlorophenyl)piperazin-1-yl)acetamide]",IC50,PC-3,76.7 ± 3.9 µM
same,IC50,MCF-7,71.3 ± 3.6 µM
same,IC50,HCT-116,69.9 ± 3.7 µM
"CC(=O)N1N=C(c2ccc(NC(=O)CN3CCN(c4ccc(Cl)cc4)CC3)cc2)CC1c1ccco1 (stereo not shown) [5n, N-(4-(1-Acetyl-5-(furan-2-yl)-4,5-dihydro-1H-pyrazol-3-yl)phenyl)-2-(4-(4-chlorophenyl)piperazin-1-yl)acetamide]",IC50,PC-3,36.8 ± 2.2 µM
same,IC50,MCF-7,23.9 ± 1.7 µM
same,IC50,HCT-116,39.6 ± 2.3 µM
"COc1cccc2c1C(=O)c1c(O)c3c(c(O)c1C2=O)C[C@@](O)(C(=O)CO)C[C@@H]3O[C@H]1C[C@H](N)[C@H](O)[C@H](C)O1 [Doxorubicin, reference compound]",GI50,[1]; Homo sapiens,5 µM
"CNC(=O)c1cc(Oc2ccc(NC(=O)Nc3ccc(Cl)c(C(F)(F)F)c3)cc2)ccn1 [Sorafenib, reference compound]",GI50,[1]; Homo sapiens,8 µM
same,GI50,[1],7 µM
same,IC50,PC-3,11.5 ± 0.9 µM

# — article PMC11951252 (RSC Advances, 2025)
